Results taken from patent US20210386829A1, “COMPOSITIONS AND METHODS FOR MODULATING CGRP SIGNALING TO REGULATE INNATE LYMPHOID CELL INFLAMMATORY RESPONSES” (The Broad Institute, Inc., priority 2018, published 2021).
“Also recorded” adds a separate entry of the source.

How the values were obtained:
[1] = test system: lung ILCs; test: CellTrace Violet proliferation assay of sort-purified lung ILCs; format: cell-based, mouse; conditions: 3 days
Protocol: ILC in vitro culture. For in vitro experiments 5,000 ILCs/well were cultured in a 96 well round bottom plate with 20 ng/ml IL-7 (R&D Systems), 200 ng/ml IL-25 (R&D Systems) or 20 ng/ml, 2 ng/ml or 0.2 ng/ml IL-33 (BioLegend) with or without 1 μg/ml Neuromedin U (US Biological). In some cases purified CD90.2^+ lung cells were first labeled with CellTrace Violet (Thermo Fisher Scientific), then sorted as described above, and cultured for 3 days under the indicated conditions.
Proliferation assay. Lung cells were isolated and enriched for CD90.2 cells as described above, followed by labeling with CellTrace Violet (Cat #C34557; Thermo Fisher Scientific) according to manufacturer's instructions and subsequently stained with antibodies. After 3-day culture of sort-purified ILCs with 20 ng/ml IL-7 either alone or in combination with 200 ng/ml IL-33, 100 pM CGRP or 100 nM CGRP followed by staining, expression of CellTrace Violet in live (7AAD−) ILCs was analyzed on a BD LSRFortessa (BD Biosciences).

[2] = test system: inflammatory ILC2s (ST2-KLRG1+ ILCs; iILC2s); test: culture of sort-purified inflammatory ILC2s (iILC2s) with IL-33 or IL-25 with or without CGRP, qPCR; format: cell-based, mouse; conditions: IL-33 or IL-25 with vs without CGRP, 6 hours
Protocol: Isolation of lung cells for fluorescence-activated cell sorting. Mice were euthanized and perfused with 8 ml cold PBS via the right heart ventricle. Lung lobes were removed from the chest cavity and transferred into gentleMACS C tubes containing Buffer S and enzymes A and D from the lung dissociation kit (Cat #130-095-927; Miltenyi Biotec). After manual dissociation of the tissue by running program lung_01 of the automated tissue dissociator (gentleMACS; Miltenyi Biotec), and digestion at 37° C. for 25 min on a rotator, the tissue pieces were further dissociated by running program lung_02 of the automated tissue dissociator. Subsequently, the single-cell suspension was passed through a 70 um cell strainer and washed with DPBS (Cat #14190-144; Thermo Fisher Scientific) containing 0.5% bovine serum albumin (Cat #BP1600-1; Fisher Scientific) and 2 mM EDTA. After incubation of the cells with CD90.2 MicroBeads (Cat #130-049-101; Miltenyi Biotec) on ice for 17 min, cells were washed and transferred onto LS columns (Cat #130-042-401; Miltenyi Biotec) to enrich for CD90.2-positive cells by positive selection. […] Cells were purified by fluorescence-activated cell sorting using a BD FACS Aria IIIu flow cytometer with 3 lasers (405 nm, 488 nm, 640 nm) or 4 lasers (405 nm, 488 nm, 561 nm and 640 nm) (BD Biosciences). […]

[3] = test system: ILC2s; conditions: recent report (Sui et al., 2018); cited from earlier work

CGRP: neuropeptide calcitonin gene-related peptide (encoded by Calca), ligand of the Ramp1/Calcrl receptor; given at 100 nM in vitro, 6.65 ug nasally
IL-33-activated ILCs that proliferated ([1]; IL-7+IL-33 in the presence of 100 nM CGRP): less than 10%
IL-33-induced proliferation of ILCs ([1]; IL-33 with 100 pM or 100 nM CGRP vs IL-33 alone): inhibits IL-33-induced proliferation in a dose-dependent manner; also recorded: strongly inhibited
Il5 and Il13 expression in iILC2s [2]: no differences
IL-5 and amphiregulin (Areg) production by ILC2s [3]: enhanced
